Like-named read-outs stand apart in the source and are kept apart here.
Assays:
Assay in all cases: FoID dehydrogenase (DH) enzyme assay
spFoID = target: T1, spFoID (Streptococcus pneumoniae serotype 4, UniProt Q97RI9); format: biochemical, S. pneumoniae
T1 construct: made in house; host or cells: E. coli BL21 (DE3)
Procedure: (§1) (6R,S)-5,10-Methylene-5,6,7,8-tetrahydrofolic acid ((6R,S)-5,10-CH2-THF), calcium salt and (6R,S)-5,10-Methenyl-5,6,7,8-tetrahydrofolic acid ((6R,S)-5,10-CH=THF) chloride were purchased from Schircks Laboratories (Bauma, Switzerland) and were used as substrates for FoID dehydrogenase and cyclohydrolase enzyme assays, respectively. Only the R-isomer, which accounts for 50% of (6R,S)-5,10-CH2-THF and (6R,S)-5,10-CH=THF, respectively, is used by the enzyme. (6R,S)-5,10-CH2-THF was dissolved in N2-spargeled basic buffer (50 mM Tris-HCl (pH 8.0), 100 mM β-mercaptoethanol) as described by Sah and Varshney, 2015a (6R,S)-5,10-CH=THF was first dissolved in DMSO as a 100 mM stock solution.
Because FoID is a bifunctional enzyme, dehydrogenase and cyclohydrolase activities were determined for FoID enzyme kinetics, respectively. The dehydrogenase activity of FoID was assayed for its substrate 5,10-CH2-THF and cofactor NADP+ (in the case of MTHFD2, NAD+ was used as cofactor) based on monitoring the formation of 5,10-CH=THF while the cyclohydrolase activity of FoID was determined for its substrate 5,10-CH=THF by monitoring the hydrolysis of 5,10-CH2-THF. The enzyme kinetics for the dehydrogenase activity of all FoIDs except hsMTHFD1_DC were determined at 30° C. in 50 mM Tris-HCl (pH 7.5), 30 mM β-mercaptoethanol. The hsMTHFD1_DC dehydrogenase activity was measured in 25 mM MOPS (pH 7.3), 30 mM β-mercaptoethanol at 30° C. To measure the enzyme kinetics constants for 5,10-CH2-THF, for example in the case of ecFoID, the NADP concentration was fixed at 1 mM and the concentration of 5,10-CH2-THF varied from 5 μM to 1,500 μM (R-isomer). Similarly, to measure the kinetic constants of ecFoID for NADP+, the concentration of 5,10-CH2-THF (R-isomer) was fixed at 1 mM and the concentration of NADP+ varied from 10 μM to 1,500 μM. For different FoIDs, the varied concentration range of substrates could be different. […] To monitor the formation of 5,10-CH=THF, the absorbance of the reaction mixture was monitored at 350 nm in micro UV cuvettes (BRAND, Essex, Connecticut, USA). The concentration of 5,10-CH=THF produced in the reaction was determined using an extinction co-efficient of 0.0249 μM-1 cm-1. […] The consumption of 5,10-CH=THF was measured by recording the absorbance of the reactions at 355 nm using the TECAN Infinite 200 PRO equipped with a monochromator. […] The inhibition constants (Ki) of carolacton on FoID were determined by measuring the apparent Km values when adding certain amounts of carolacton to the enzyme reactions. […] To compare the inhibition effects of carolacton between the different FoIDs, the half maximal inhibitory concentration (IC50) of carolacton on the same amount of enzyme was determined for FoIDs involved in this study. […]

hsMTHFD1 DC301 = target: T2, hsMTHFD1 DC301 (Homo sapiens, UniProt P11586); format: biochemical
T2 construct: We therefore expressed and purified hsMTHFD2 and hsMTHFD1_DC to test them biochemically; His-tag (vector pHis-TEV); made in house; host or cells: E. coli BL21 (DE3)
T2 sequence (P11586 2-291 limits assumed): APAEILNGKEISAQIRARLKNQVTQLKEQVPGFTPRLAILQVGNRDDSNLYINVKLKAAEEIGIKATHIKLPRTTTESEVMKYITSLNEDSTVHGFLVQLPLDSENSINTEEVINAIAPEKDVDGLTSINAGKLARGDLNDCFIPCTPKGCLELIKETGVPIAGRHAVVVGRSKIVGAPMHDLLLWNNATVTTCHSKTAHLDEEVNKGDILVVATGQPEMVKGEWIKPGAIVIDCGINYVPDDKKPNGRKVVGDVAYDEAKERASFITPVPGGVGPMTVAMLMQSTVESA
Procedure: as §1
(§2) Because FoID is a bifunctional enzyme, dehydrogenase and cyclohydrolase activities were determined for FoID enzyme kinetics, respectively. The dehydrogenase activity of FoID was assayed for its substrate 5,10-CH2-THF and cofactor NADP+ (in the case of MTHFD2, NAD+ was used as cofactor) based on monitoring the formation of 5,10-CH=THF while the cyclohydrolase activity of FoID was determined for its substrate 5,10-CH=THF by monitoring the hydrolysis of 5,10-CH2-THF. The enzyme kinetics for the dehydrogenase activity of all FoIDs except hsMTHFD1_DC were determined at 30° C. in 50 mM Tris-HCl (pH 7.5), 30 mM β-mercaptoethanol. The hsMTHFD1_DC dehydrogenase activity was measured in 25 mM MOPS (pH 7.3), 30 mM β-mercaptoethanol at 30° C. To measure the enzyme kinetics constants for 5,10-CH2-THF, for example in the case of ecFoID, the NADP concentration was fixed at 1 mM and the concentration of 5,10-CH2-THF varied from 5 μM to 1,500 μM (R-isomer). Similarly, to measure the kinetic constants of ecFoID for NADP+, the concentration of 5,10-CH2-THF (R-isomer) was fixed at 1 mM and the concentration of NADP+ varied from 10 μM to 1,500 μM. For different FoIDs, the varied concentration range of substrates could be different. The 50 μL reactions of dehydrogenase assays were initiated by adding appropriate amounts enzyme (4 nM ecFoID, 4 nM spFoID, 15 nM hsMTHFD1_DC, 20 nM hsMTHFD2, 20 nM G8S, 20 nM Q98H, 10 nM K54N, 200 nM ΔK54R55 in the corresponding assays) and terminated with 50 μL 1 M HCl after 2 min incubation at 30° C. To monitor the formation of 5,10-CH=THF, the absorbance of the reaction mixture was monitored at 350 nm in micro UV cuvettes (BRAND, Essex, Connecticut, USA). The concentration of 5,10-CH=THF produced in the reaction was determined using an extinction co-efficient of 0.0249 μM-1 cm-1. Cyclohydrolase activity for each FoID was assayed in the same buffer as dehydrogenase activity at 30° C. but for 30 s. The concentration of FoID used in each assay was 5 nM of ecFoID, spFoID and hsMTHFD1_DC, respectively, and 2 nM of hsMTHFD2. The consumption of 5,10-CH=THF was measured by recording the absorbance of the reactions at 355 nm using the TECAN Infinite 200 PRO equipped with a monochromator. To measure the enzyme kinetic constants, different concentrations of 5,10-CH=THF (varied from […]) were used in […] reaction mixtures. The inhibition constants (Ki) of carolacton on FoID were determined by measuring the apparent Km values when adding certain amounts of carolacton to the enzyme reactions. For ecFoID, 10 nM carolacton was added in the dehydrogenase assay and 50 nM carolacton was used in the cyclohydrolase assay. For spFoID, 25 nM carolacton was added in both dehydrogenase assay and cyclohydrolase assay. For hsMTHFD1_DC, 30 nM carolacton was added in the dehydrogenase assay and 10 nM in the cyclohydrolase assay. […] To compare the inhibition effects of carolacton between the different FoIDs, the half maximal inhibitory concentration (IC50) of carolacton on the same amount of enzyme was determined for FoIDs involved in this study. The enzyme concentration used to determine dehydrogenase activity IC50 was 10 nM, and the enzyme used for cyclohydrolase IC50 measurements was 5 nM. All enzyme kinetics measurements were performed as independent triplicates. […]

hsMTHFD2 = target: T3, hsMTHFD2 (Homo sapiens, UniProt P13995); format: biochemical
T3 construct: His-tag (vector pHis-TEV); made in house; host or cells: E. coli BL21 (DE3)
T3 sequence (P13995 36-350): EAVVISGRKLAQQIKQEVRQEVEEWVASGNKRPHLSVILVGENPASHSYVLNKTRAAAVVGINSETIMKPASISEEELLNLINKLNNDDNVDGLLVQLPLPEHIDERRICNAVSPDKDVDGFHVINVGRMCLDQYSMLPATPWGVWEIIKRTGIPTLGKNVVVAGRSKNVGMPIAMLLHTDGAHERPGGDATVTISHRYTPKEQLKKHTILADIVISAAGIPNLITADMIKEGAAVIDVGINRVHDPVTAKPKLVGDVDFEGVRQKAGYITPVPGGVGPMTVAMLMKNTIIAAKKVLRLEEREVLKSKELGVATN
Procedure: as §1, §2

[1] = 10 nM enzyme, read-out: IC50, carolacton inhibition on DH activity
[2] = vs 5,10-CH2-THF, read-out: Ki (5,10-CH2—THF), carolacton inhibition on DH activity
[3] = vs cofactor NADP+, read-out: Ki (NADP^+), carolacton inhibition on DH activity

T1 sequence (Q97RI9 whole entry): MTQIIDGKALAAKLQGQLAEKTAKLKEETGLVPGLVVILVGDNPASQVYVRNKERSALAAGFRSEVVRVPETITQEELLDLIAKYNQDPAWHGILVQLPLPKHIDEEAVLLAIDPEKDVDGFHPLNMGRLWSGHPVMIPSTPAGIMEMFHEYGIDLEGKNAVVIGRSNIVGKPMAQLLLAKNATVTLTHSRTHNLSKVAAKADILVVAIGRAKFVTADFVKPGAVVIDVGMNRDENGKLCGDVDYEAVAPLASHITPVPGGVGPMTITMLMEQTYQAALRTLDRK

For `CO[C@H](CC(=O)O)[C@@H](C)C(=O)[C@H](C)/C=C(\C)[C@H]1OC(=O)[C@H](O)[C@H](O)/C=C/[C@H](C)CCC[C@@H]1C` [Carolacton, carolacton], the IC50 (spFoID; [1]) was 36.8 nM, the IC80 (spFoID; 10 nM enzyme, read-out: IC80, carolacton inhibition on DH activity) was 169 nM and the Ki (spFoID; [2]) was 42.2 nM. For the same compound, the Ki (spFoID; [3]) was 34.2 nM, the IC50 (hsMTHFD1 DC301; [1]) was 38 nM and the Ki (hsMTHFD1 DC301; [2]) was 5.93 nM. The Ki (hsMTHFD1 DC301; [3]) was 58.7 nM, the IC50 (hsMTHFD2; [1]) was 6.5 nM and the Ki (hsMTHFD2; cofactor is NAD in the case of hsMTHFD2, read-out: Ki (NADP^+)^a, carolacton inhibition on DH activity) was 16.7 nM. For the same compound, the Ki (hsMTHFD2; [2]) was 6.42 nM.

— patent publication US11357752B2, “Carolacton and derivatives thereof for use in the treatment of cell proliferation disorders” (Helmholtz-Zentrum für Infektionsforschung GmbH, priority 2017, dated 2022)
